# Data from the supplement of paper PMC10307832.
# How the values were obtained:
# Experiment in all cases: relative viability (nuclei count vs DMSO), 5 days (fraction); higher = more cells survive
# [1] = system: NCI-H1975
# How it was run: (§1)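 Lung cancer cell lines were seeded in 1536-well plates and dosed by pin tool the next day, with either a single drug or a fixed anchor-drug dose combined with five library-drug doses (not always all listed) spaced in √10 steps. Five days later, one step fixed the cells and stained their nuclei (final 0.05% Triton X-100, 1% formaldehyde, 1 ug/ml Hoechst), and nuclei were counted on 4× images. Relative viability is the nuclei count in treated wells divided by the count in vehicle wells, and each value is the median of duplicate plates.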
# [2] = system: SK-MES-1
# How it was run: as §1
# [3] = system: RERF-LC-KJ
# How it was run: as §1
# [4] = system: NCI-H1395
# How it was run: as §1
# [5] = system: NCI-H2087
# How it was run: as §1
# [6] = system: NCI-H2085
# How it was run: as §1
# [7] = system: NCI-H1993
# How it was run: as §1
# [8] = system: A-427
# How it was run: as §1
# [9] = system: NCI-H2023
# How it was run: as §1
# [10] = system: EPLC-272H
# How it was run: as §1
# [11] = system: NCI-H2170
# How it was run: as §1
# [12] = system: COR-L 105
# How it was run: as §1
# [13] = system: NCI-H1651
# How it was run: as §1
# [14] = system: NCI-H647
# How it was run: as §1
# [15] = system: LCLC-103H
# How it was run: as §1
# [16] = system: NCI-H650
# How it was run: as §1
# [17] = system: NCI-H596
# How it was run: as §1
# [18] = system: HOP-62
# How it was run: as §1
# [19] = system: CAL-12T
# How it was run: as §1
# [20] = system: COR-L23
# How it was run: as §1
# [21] = system: PC-14
# How it was run: as §1
# [22] = system: LXF-289
# How it was run: as §1
# [23] = system: NCI-H3122
# How it was run: as §1
structure (smiles),measurement,setting,value
Cc1cnc(-c2cnc(NCCNc3ccc(C#N)cn3)nc2-c2ccc(Cl)cc2Cl)[nH]1 + CCNC(=O)c1noc(-c2cc(C(C)C)c(O)cc2O)c1-c1ccc(CN2CCOCC2)cc1 [Luminespib] (partner 0.01 µM),relative viability,[1]; first compound 0.08 µM,0.21
same,relative viability,[1]; first compound 0.253 µM,0.252
same,relative viability,[1]; first compound 0.8 µM,0.191
same,relative viability,[1]; first compound 2.53 µM,0.189
same,relative viability,[2]; first compound 0.08 µM,0.859
same,relative viability,[2]; first compound 0.253 µM,0.757
same,relative viability,[2]; first compound 0.8 µM,0.838
same,relative viability,[2]; first compound 2.53 µM,0.921
same,relative viability,[3]; first compound 0.08 µM,1.23
same,relative viability,[3]; first compound 0.253 µM,1.12
same,relative viability,[3]; first compound 0.8 µM,1.27
same,relative viability,[3]; first compound 2.53 µM,1.32
same,relative viability,[4]; first compound 0.08 µM,0.627
same,relative viability,[4]; first compound 0.253 µM,0.708
same,relative viability,[4]; first compound 0.8 µM,0.65
same,relative viability,[4]; first compound 2.53 µM,0.677
same,relative viability,[5]; first compound 0.08 µM,0.128
same,relative viability,[5]; first compound 0.253 µM,0.128
same,relative viability,[5]; first compound 0.8 µM,0.208
same,relative viability,[5]; first compound 2.53 µM,0.175
same,relative viability,[6]; first compound 0.08 µM,0.456
same,relative viability,[6]; first compound 0.253 µM,0.486
same,relative viability,[6]; first compound 0.8 µM,0.462
same,relative viability,[6]; first compound 2.53 µM,0.339
same,relative viability,[7]; first compound 0.08 µM,0.934
same,relative viability,[7]; first compound 0.253 µM,0.932
same,relative viability,[7]; first compound 0.8 µM,0.598
same,relative viability,[7]; first compound 2.53 µM,1.27
same,relative viability,[8]; first compound 0.08 µM,0.954
same,relative viability,[8]; first compound 0.253 µM,0.828
same,relative viability,[8]; first compound 0.8 µM,0.814
same,relative viability,[8]; first compound 2.53 µM,0.916
same,relative viability,[9]; first compound 0.08 µM,0.872
same,relative viability,[9]; first compound 0.253 µM,0.751
same,relative viability,[9]; first compound 0.8 µM,0.863
same,relative viability,[9]; first compound 2.53 µM,0.774
same,relative viability,[10]; first compound 0.08 µM,0.308
same,relative viability,[10]; first compound 0.253 µM,0.313
same,relative viability,[10]; first compound 0.8 µM,0.209
same,relative viability,[10]; first compound 2.53 µM,0.192
same,relative viability,[11]; first compound 0.08 µM,0.984
same,relative viability,[11]; first compound 0.253 µM,0.593
same,relative viability,[11]; first compound 0.8 µM,0.667
same,relative viability,[11]; first compound 2.53 µM,0.655
same,relative viability,[12]; first compound 0.08 µM,0.846
same,relative viability,[12]; first compound 0.253 µM,0.648
same,relative viability,[12]; first compound 0.8 µM,0.696
same,relative viability,[12]; first compound 2.53 µM,0.654
same,relative viability,[13]; first compound 0.08 µM,1.03
same,relative viability,[13]; first compound 0.253 µM,0.864
same,relative viability,[13]; first compound 0.8 µM,0.762
same,relative viability,[13]; first compound 2.53 µM,0.883
same,relative viability,[14]; first compound 0.08 µM,0.144
same,relative viability,[14]; first compound 0.253 µM,0.131
same,relative viability,[14]; first compound 0.8 µM,0.135
same,relative viability,[14]; first compound 2.53 µM,0.166
same,relative viability,[15]; first compound 0.08 µM,1.08
same,relative viability,[15]; first compound 0.253 µM,0.865
same,relative viability,[15]; first compound 0.8 µM,0.933
same,relative viability,[15]; first compound 2.53 µM,0.826
same,relative viability,[16]; first compound 0.08 µM,0.806
same,relative viability,[16]; first compound 0.253 µM,0.768
same,relative viability,[16]; first compound 0.8 µM,0.758
same,relative viability,[16]; first compound 2.53 µM,0.76
same,relative viability,[17]; first compound 0.08 µM,1.06
same,relative viability,[17]; first compound 0.253 µM,1.03
same,relative viability,[17]; first compound 0.8 µM,1.05
same,relative viability,[17]; first compound 2.53 µM,1.24
same,relative viability,[18]; first compound 0.08 µM,0.955
same,relative viability,[18]; first compound 0.253 µM,0.841
same,relative viability,[18]; first compound 0.8 µM,0.79
same,relative viability,[18]; first compound 2.53 µM,0.738
same,relative viability,[19]; first compound 0.08 µM,0.932
same,relative viability,[19]; first compound 0.253 µM,0.259
same,relative viability,[19]; first compound 0.8 µM,0.387
same,relative viability,[19]; first compound 2.53 µM,0.242
same,relative viability,[20]; first compound 0.08 µM,0.784
same,relative viability,[20]; first compound 0.253 µM,0.578
same,relative viability,[20]; first compound 0.8 µM,0.659
same,relative viability,[20]; first compound 2.53 µM,0.621
same,relative viability,[21]; first compound 0.08 µM,0.151
same,relative viability,[21]; first compound 0.253 µM,0.24
same,relative viability,[21]; first compound 0.8 µM,0.107
same,relative viability,[21]; first compound 2.53 µM,0.18
same,relative viability,[22]; first compound 0.08 µM,0.695
same,relative viability,[22]; first compound 0.253 µM,0.605
same,relative viability,[22]; first compound 0.8 µM,0.726
same,relative viability,[22]; first compound 2.53 µM,0.665
same,relative viability,[23]; first compound 0.08 µM,0.124
same,relative viability,[23]; first compound 0.8 µM,0.0778
same,relative viability,[23]; first compound 2.53 µM,0.0737
